Data on two compounds can be found in patent publication US7799797B2, “Arylsulfonyl naphthalene derivatives and uses thereof” (Roche Palo Alto LLC, priority 2006, dated 2010).

In experiment [1] the target is T1, recombinant human 5-HT2A receptor (Homo sapiens, UniProt P28223).
T1 construct: expressed in transfected cells
As to the kind of experiment: Radioligand binding, [3H]Ketanserin competition in CHO-K1 cell membranes. Conditions: [3H]Ketanserin displacement, pH 7.4, 32° C., read-out: pKi for 5-HT2A (converted). On the procedure:
(§1) The binding activity of compounds of this invention in vitro was determined as follows. Duplicate determinations of 5-HT6 ligand affinity were made by competing for binding of [^3H]LSD in cell membranes derived from HEK293 cells stably expressing recombinant human 5-HT6 receptor. Duplicate determinations of 5-HT2A ligand affinity were made by competing for binding of [^3H]Ketanserin (3-(2-(4-(4-fluorobenzoyl)piperidinol)ethyl)-2,4(1H, 3H)-quinazolinedione) in cell membranes derived from CHO-K1 cells stably expressing recombinant human 5-HT2A receptor. Membranes were prepared from HEK 293 cell lines by the method described by Monsma et al., Molecular Pharmacology, Vol. 43 pp. 320-327 (1993), and from CHO-K1 cell lines as described by Bonhaus et al., Br J. Pharmacol. June; 115(4):622-8 (1995).
(§2) For estimation of affinity at the 5-HT6 receptor, all determinations were made in assay buffer containing 50 mM Tris-HCl, 10 mM MgSO4, 0.5 mM EDTA, 1 mM ascorbic acid, pH 7.4 at 37° C., in a 250 microliter reaction volume. […]
(§3) Assay tubes containing [^3H] […] LSD or [^3H]Ketanserin were determined as radioactive counts per minute using Packard TopCount.
(§4) Displacement of [^3H]LSD or [^3H]Ketanserin from the binding sites was quantified by fitting concentration-binding data to a 4-parameter logistic equation: […]

Experiment [2] has as its target T2, recombinant human 5-HT6 receptor (Homo sapiens, UniProt P50406).
T2 construct: expressed in transfected cells
The experiment in a line: Radioligand binding, [3H]LSD competition in HEK293 cell membranes. As to conditions: [3H]LSD displacement, pH 7.4, 37° C., read-out: pKi for 5-HT6 (converted). On the procedure:
as §1, §2, §3, §4

T2 sequence (P50406 whole entry): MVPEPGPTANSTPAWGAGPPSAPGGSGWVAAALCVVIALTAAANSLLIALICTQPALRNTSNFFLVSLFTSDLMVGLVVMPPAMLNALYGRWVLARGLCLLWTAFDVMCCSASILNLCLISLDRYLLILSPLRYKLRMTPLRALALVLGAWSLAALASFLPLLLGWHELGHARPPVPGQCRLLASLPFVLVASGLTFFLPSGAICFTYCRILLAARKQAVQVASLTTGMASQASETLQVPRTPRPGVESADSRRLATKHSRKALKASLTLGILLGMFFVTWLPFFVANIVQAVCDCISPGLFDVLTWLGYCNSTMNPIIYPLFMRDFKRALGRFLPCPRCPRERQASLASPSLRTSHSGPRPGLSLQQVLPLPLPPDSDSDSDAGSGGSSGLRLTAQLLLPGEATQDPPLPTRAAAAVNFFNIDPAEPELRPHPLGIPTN
T1 sequence (P28223 whole entry): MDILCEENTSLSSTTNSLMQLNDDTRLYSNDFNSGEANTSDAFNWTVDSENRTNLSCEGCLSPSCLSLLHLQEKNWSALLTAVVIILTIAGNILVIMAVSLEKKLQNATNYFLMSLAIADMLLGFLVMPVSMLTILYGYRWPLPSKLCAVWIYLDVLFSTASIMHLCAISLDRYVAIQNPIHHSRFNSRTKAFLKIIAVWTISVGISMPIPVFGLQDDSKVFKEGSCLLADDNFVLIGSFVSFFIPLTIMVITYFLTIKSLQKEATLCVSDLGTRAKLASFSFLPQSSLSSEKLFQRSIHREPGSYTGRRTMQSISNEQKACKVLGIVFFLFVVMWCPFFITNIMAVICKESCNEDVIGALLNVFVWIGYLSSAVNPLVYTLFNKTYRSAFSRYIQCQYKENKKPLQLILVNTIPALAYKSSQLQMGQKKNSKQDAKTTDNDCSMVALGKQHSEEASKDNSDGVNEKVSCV

For the compound `NCc1cccc2cc(S(=O)(=O)c3cccc(F)c3)ccc12` [Compound 2, C-[6-(3-Fluoro-benzenesulfonyl)-naphthalen-1-yl]-methylamine], in experiment [1], the Ki is around 5.01 nM.
`CNCc1cccc2cc(S(=O)(=O)c3ccccc3)ccc12` [Compound 1, (6-Benzenesulfonyl-naphthalen-1-ylmethyl)-methyl-amine]: the Ki in experiment [2] is around 0.447 nM.
